Measured values published in publication PMC12624434 (ACS Pharmacology & Translational Science, 2025).
Where “and” joins values, the source holds several entries; their conditions need not be identical. Identical values can stand only once. Entries after “also recorded” stand apart in the source; their conditions may differ. Like-named read-outs stand apart in the source and are kept apart here.

Key:
NRP1 b1 domain = biological target: T1, NRP1 b1 domain (Homo sapiens, UniProt O14786); assay: SPR binding to immobilized NRP1 b1 domain (Biacore 4000, CM5 chip); details: steady-state binding, 25 °C, mean ± SD; for Kd: read-out: SPR NRP1 b1 domain equilibrium KD
T1 construct: with the purified recombinant NRP1 b1 domain immobilized on the chip; inferred from Ni-NTA capture), TEV-cleavable (cleaved yes); made in house; host or cells: E. coli Rosetta (DE3)
T1 sequence (O14786 275-424 limits assumed): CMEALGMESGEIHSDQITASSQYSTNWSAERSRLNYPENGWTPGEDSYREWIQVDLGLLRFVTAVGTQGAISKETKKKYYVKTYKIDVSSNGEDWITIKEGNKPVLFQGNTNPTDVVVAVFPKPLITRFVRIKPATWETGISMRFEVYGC
Procedure: Surface Plasmon Resonance experiments were performed using a Biacore 4000 instrument at a constant temperature of 25 °C. Sensor chips, buffer stock solutions, and immobilization reagents were purchased from GE Healthcare. Recombinant human NRP1-b1 was produced in-house and recombinant human NRP1-ECD (extracellular domain) was purchased from ACRO (catalogue number NR1-H5A228). All other reagents were obtained from Sigma.
PBS containing 0.05% surfactant P20 was used as the running buffer during immobilization. NRP1-b1 was immobilized onto a CM5 chip using random amine coupling. The four flow cells were treated in the same way to optimize throughput. In summary, spots 1 and 2 were activated with the coupling reagents EDC and NHS for 10 min. NRP1-b1 at a concentration of 20 μg/mL in 10 mM sodium acetate pH 5 was injected onto the surface for 10 and 5 min in spots 1 and 2, respectively to generate surfaces with high and low density. […] The unmodified spot 3 was used as a reference.
PBS buffer containing 0.05% surfactant P20 and 3% DMSO was used as the running buffer and sample dilution buffer throughout these experiments. Dose–responses were obtained using a 2-fold sample dilution from 16 μM to 31 nM, using an injection time of 60 s. Surface regeneration between injections was not necessary, but a wash step with 1 M NaCl was included after injection of the highest concentration sample for each compound.
Binding curves were corrected for variations in DMSO concentration and normalized by molecular weight. Binding results to high and low-density surfaces were processed independently and the average ± SD is presented. K Ds reported are derived from steady-state binding responses and therefore correspond to the equilibrium binding affinity of the compounds.

[1] = Pharmacokinetics in mice, 2 mg/kg iv; format: in vivo; details: female, BALB/c, mouse, plasma; for clearance: iv, 2 mg/kg; for AUC: read-out: AUCall
Procedure: To test compound drug-like properties, selected compounds with low IC50 were further evaluated for their pharmacokinetic (PK) profile. 6–8 week-old BABL/c female mice were used. Two mg/kg of compounds was formulated in 7.5% DMSO and 92.5% PBS solution and intravenously dosed into the tail vein as a bolus. Blood samples were collected by cardiac puncture at 5, 15, 30, 60, 180, and 240 min post dosing. Plasma samples were prepared by centrifugation at 7000 rpm for 5 min, and supernatants were collected, immediately snap-frozen on dry ice and stored at −20 °C. Samples were analyzed by liquid chromatography-tandem mass spectrometry using electrospray ionization and data was analyzed by WinNonlin software.

NRP1-a1,b1 = biological target: T2, NRP1-a1,b1 (Homo sapiens, UniProt O14786); assay: bt-VEGFA cell-free competition binding assay (plate-based)
T2 sequence (O14786 273-427 limits assumed): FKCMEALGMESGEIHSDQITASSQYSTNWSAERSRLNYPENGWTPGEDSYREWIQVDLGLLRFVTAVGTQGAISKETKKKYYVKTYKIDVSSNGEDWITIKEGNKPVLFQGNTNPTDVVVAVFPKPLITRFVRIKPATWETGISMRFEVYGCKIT
Procedure: The assay was conducted as previously described. Briefly, the 96-well plates were precoated with NRP1 protein at 3 μg/mL overnight at 4 °C. On the following day, the plates were treated with blocking buffer (PBS containing 1%1% BSA) and washed three times with wash buffer (PBS containing 0.1% Tween-20). The various concentrations of compounds diluted in PBS containing 1%1% DMSO were added, followed by addition of 0.25 nM of bt-VEGFA165. After 2 h of incubation at room temperature, the plates were washed three times with wash buffer. The bound bt-VEGFA165 to NRP1 was detected by streptavidin– horseradish peroxidase conjugates and the enzyme substrate, and measured using a Tecan Genius plate reader at 450 nm with a reference wavelength at 595 nm. Nonspecific binding was determined in the absence of NRP1-coated wells of the plates.

[2] = Solubility (observation during SPR); format: physicochemical; details: noted with SPR data fitting
[3] = pK BHX scale; no reference given; cited from earlier work
[4] = plate-based assay, Figure 2D, read-out: IC50, competitive inhibition of bt-VEGFA binding to NRP1
[5] = 0.25 nM bt-VEGFA165, mean ± SEM, at least three independent experiments, read-out: Competition analysis bt-VEGFA, cell-free NRP1-a1,b1 IC50

SMILES: Cn1cncc1CNCc1ccc(-c2cc(S(=O)(=O)Nc3ccsc3C(=O)N[C@@H](CCCNC(=N)N)C(=O)O)c3ncccc3c2)cc1 [Compound 12c, (2S)-5-Guanidino-2-[[3-[[6-[4-[[(3-methylimidazol-4-yl)-methylamino]-methyl]-phenyl]-8-quinolyl]-sulfonylamino]-thiophene-2-carbonyl]-amino]-pentanoic Acid, Formic Acid]
- Kd (NRP1 b1 domain): 800 ± 140 nM

SMILES: N=C(N)NCCC[C@H](NC(=O)c1sccc1NS(=O)(=O)c1cc(-c2ccnc(N)c2)cc2cccnc12)C(=O)O [Compound 12f, (2S)-2-[[3-[[6-(2-Amino-4-pyridyl)-8-quinolyl]-sulfonylamino]-thiophene-2-carbonyl]-amino]-5-guanidino-pentanoic Acid, Formic Acid]
- Kd (NRP1 b1 domain): 1490 ± 200 nM

SMILES: CN(C)c1nc(CNc2cc(S(=O)(=O)Nc3ccsc3C(=O)N[C@@H](CCCNC(=N)N)C(=O)O)c3ncccc3c2)cs1.O=CO [Compound 12g, (2S)-2-[[3-[[6-[[2-(Dimethylamino)-thiazol-4-yl]-methylamino]-8-quinolyl]-sulfonylamino]-thiophene-2-carbonyl]-amino]-5-guanidino-pentanoic Acid, Formic Acid]
- AUC(0-inf) [1]: 491 ng·h/mL
- AUC(0-t) [1]: 490 ng·h/mL
- Cmax [1]: 2050 ng/mL
- Tmax [1]: 4.8 min
- Vd [1]: 0.569 L/kg
- half-life [1]: 23.4 min
- clearance [1]: 67.9 mL/min/kg
- AUC [1]: 490 ng·h/mL
- IC50 (NRP1-a1,b1; [4]): < 500 nM
- solubility [2]: poor solubility
- SPR NRP1 b1 domain equilibrium KD (NRP1 b1 domain): did not converge; also recorded: Curve fit does not converge

SMILES: CN(C)c1ccc(CNc2cc(S(=O)(=O)Nc3ccsc3C(=O)N[C@@H](CCCNC(=N)N)C(=O)O)c3ncccc3c2)cn1 [Compound 12n, (2S)-2-[[3-[[6-[[6-(Dimethylamino)-3-pyridyl]-methylamino]-8-quinolyl]-sulfonylamino]-thiophene-2-carbonyl]-amino]-5-guanidino-pentanoic Acid]
- Kd (NRP1 b1 domain): 820 ± 100 nM

SMILES: CN(C)c1ncc(CNc2cc(S(=O)(=O)Nc3ccsc3C(=O)N[C@@H](CCCNC(=N)N)C(=O)O)c3ncccc3c2)cn1 [Compound 12m, (2S)-2-[[3-[[6-[[2-(Dimethylamino)-pyrimidin-5-yl]-methylamino]-8-quinolyl]-sulfonylamino]-thiophene-2-carbonyl]-amino]-5-guanidino-pentanoic Acid]
- Kd (NRP1 b1 domain): 7710 ± 310 nM

SMILES: Cn1cncc1CNCc1cccc(-c2cc(S(=O)(=O)Nc3ccsc3C(=O)N[C@@H](CCCNC(=N)N)C(=O)O)c3ncccc3c2)c1 [Compound 12a, (2S)-5-Guanidino-2-[[3-[[6-[3-[[(3-methylimidazol-4-yl)-methylamino]-methyl]-phenyl]-8-quinolyl]-sulfonylamino]-thiophene-2-carbonyl]-amino]-pentanoic Acid, Formic Acid]
- Kd (NRP1 b1 domain): 1440 ± 130 nM

SMILES: CNCc1ccc(-c2cc(S(=O)(=O)Nc3ccsc3C(=O)N[C@@H](CCCNC(=N)N)C(=O)O)c3ncccc3c2)cc1 [Compound 12b, (2S)-5-Guanidino-2-[[3-[[6-[4-(methylaminomethyl)-phenyl]-8-quinolyl]-sulfonylamino]-thiophene-2-carbonyl]-amino]-pentanoic Acid, Formic Acid]
- Kd (NRP1 b1 domain): 2270 ± 70 nM

SMILES: N=C(N)NCCC[C@H](NC(=O)c1sccc1NS(=O)(=O)c1cc(NCc2ccc(N)nc2)cc2cccnc12)C(=O)O [Compound 12l, (2S)-2-[[3-[[6-[(6-Amino-3-pyridyl)-methylamino]-8-quinolyl]-sulfonylamino]-thiophene-2-carbonyl]-amino]-5-guanidino-pentanoic Acid, Formic Acid]
- Kd (NRP1 b1 domain): 1230 ± 360 nM

SMILES: N=C(N)NCCC[C@H](NC(=O)c1sccc1NS(=O)(=O)c1cc(-c2cccc(CN)c2)cc2cccnc12)C(=O)O [Compound 12d, (2S)-2-[[3-[[6-[3-(Aminomethyl)-phenyl]-8-quinolyl]-sulfonylamino]-thiophene-2-carbonyl]-amino]-5-guanidino-pentanoic Acid, Formic Acid]
- Kd (NRP1 b1 domain): 650 ± 50 nM

SMILES: c1c[nH]cn1 [imidazole]
- pK BHX (hydrogen bond acceptor strength) [3]: 2.72

SMILES: CNc1nc(CNc2cc(S(=O)(=O)Nc3ccsc3C(=O)N[C@@H](CCCNC(=N)N)C(=O)O)c3ncccc3c2)cs1 [Compound 12j, (2S)-5-Guanidino-2-[[3-[[6-[[2-(methylamino)-thiazol-4-yl]-methylamino]-8-quinolyl]-sulfonylamino]-thiophene-2-carbonyl]-amino]-pentanoic Acid]
- AUC(0-inf) [1]: 643 ng·h/mL
- AUC(0-t) [1]: 640 ng·h/mL
- Cmax [1]: 2500 ng/mL
- Tmax [1]: 4.8 min
- Vd [1]: 0.628 L/kg
- half-life [1]: 36 min
- clearance [1]: 51.9 mL/min/kg
- AUC [1]: 640 ng·h/mL
- IC50 (NRP1-a1,b1; [5]): 450 ± 10 nM
- IC50 (NRP1-a1,b1; [4]): < 500 nM
- Competition analysis bt-VEGFA, cell-free NRP1-a1,b1 Hill coefficient (NRP1-a1,b1; value in parentheses): 1.0
- Kd (NRP1 b1 domain): 530 ± 140 nM

SMILES: C1CCOC1 [tetrahydrofuran]
- pK BHX (hydrogen bond acceptor strength) [3]: 1.28

SMILES: CCOCC [diethyl ether]
- pK BHX (hydrogen bond acceptor strength) [3]: 1.01

SMILES: N=C(N)NCCC[C@H](NC(=O)c1sccc1NS(=O)(=O)c1cc(NCc2cccc(N3CCOCC3)n2)cc2cccnc12)C(=O)O [Compound 12k, (2S)-5-Guanidino-2-[[3-[[6-[(6-morpholino-2-pyridyl)-methylamino]-8-quinolyl]-sulfonylamino]-thiophene-2-carbonyl]-amino]-pentanoic Acid]
- Kd (NRP1 b1 domain): 1140 ± 120 nM

SMILES: N=C(N)NCCC[C@H](NC(=O)c1sccc1NS(=O)(=O)c1cc(NCc2csc(N)n2)cc2cccnc12)C(=O)O [Compound 12i, (2S)-2-[[3-[[6-[(2-Aminothiazol-4-yl)-methylamino]-8-quinolyl]-sulfonylamino]-thiophene-2-carbonyl]-amino]-5-guanidino-pentanoic Acid, Formic Acid]
- Kd (NRP1 b1 domain): 1040 ± 120 nM

SMILES: N=C(N)NCCC[C@H](NC(=O)c1sccc1NS(=O)(=O)c1cccc2cccnc12)C(=O)O [Compound 12o, (S)-5-Guanidino-2-{[3-(quinoline-8-sulfonylamino)-thiophene-2-carbonyl]-amino}-pentanoic Acid]
- IC50 (NRP1-a1,b1; [5]): 900 ± 160 nM
- Kd (NRP1 b1 domain): 1410 ± 160 nM

SMILES: c1ccc2ncccc2c1 [quinoline]
- pK BHX (hydrogen bond acceptor strength) [3]: 1.89

SMILES: N=C(N)NCCC[C@H](NC(=O)c1sccc1NS(=O)(=O)c1cc(-c2csc(N)n2)cc2cccnc12)C(=O)O [Compound 12q, (S)-2-({3-[6-(2-Amino-thiazol-4-yl)-quinoline-8-sulfonylamino]-thiophene-2-carbonyl}-amino)-5-guanidino-pentanoic Acid]
- Kd (NRP1 b1 domain): 510 nM and 2540 nM

SMILES: N=C(N)NCCC[C@H](NC(=O)c1sccc1NS(=O)(=O)c1cc(-c2ccc(CN)cc2)cc2cccnc12)C(=O)O [Compound 12e, (2S)-2-[[3-[[6-[4-(Aminomethyl)-phenyl]-8-quinolyl]-sulfonylamino]-thiophene-2-carbonyl]-amino]-5-guanidino-pentanoic Acid, Formic Acid]
- Kd (NRP1 b1 domain): 920 ± 150 nM
